Data taken from patent US7897619B2, “Heterocyclic modulators of PKB” (Amgen Inc., priority 2007, dated 2011).
Counter-ions that a name gives are not always drawn.

Target: PKBα (Homo sapiens, UniProt P31749)
Experiment: PKB kinase assay (P33-labeled ATP, synthetic peptide substrate, filter plate)
Assay type: biochemical
Conditions: PKBα enzyme (full length or kinase domain with pleckstrin domain deleted)
From the text: The kinase assay for evaluating PKB activity comprises active PKB enzymes, a PKB specific substrate, and P^33-labeled ATP. Two forms of PKBα enzymes were used, the full length PKBα and a kinase domain of PKBα with pleckstrin domain (amino acids 1-117) deleted. Both PKB enzymes were obtained from Upstate cell signaling solutions (Cat.# 14-276 and 14-341). The PKB substrate used is a synthetic peptide (ARKRERTYSFGHHA (SEQ ID NO: 1)) as described in Obata et al., J. Biol. Chem. 275 (46), 36108-36115 (2000). The phosphorylated substrate was captured by a phosphocellulose membrane filter plate (MILLIPORE) and measured by a Wallac Microbeta liquid scintillation counter (Perkin Elmer). Table 1 provides the IC50 values obtained for each of the examples with respect to PKBα.

Chain of PKBα (P31749 118-480 limits assumed): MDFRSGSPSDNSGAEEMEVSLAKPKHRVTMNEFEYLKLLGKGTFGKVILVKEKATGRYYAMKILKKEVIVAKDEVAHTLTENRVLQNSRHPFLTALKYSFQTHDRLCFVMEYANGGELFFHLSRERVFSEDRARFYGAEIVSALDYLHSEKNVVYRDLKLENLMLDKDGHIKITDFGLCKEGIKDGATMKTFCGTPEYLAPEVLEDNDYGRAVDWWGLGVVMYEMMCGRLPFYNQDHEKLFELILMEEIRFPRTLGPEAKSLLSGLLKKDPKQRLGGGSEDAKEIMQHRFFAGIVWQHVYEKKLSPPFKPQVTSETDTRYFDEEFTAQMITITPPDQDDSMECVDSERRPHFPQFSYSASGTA

| SMILES | IC50 [nM] |
| --- | --- |
| N[C@H](CNc1cc(-c2ccc3cnccc3c2)no1)Cc1c[nH]c2ccccc12 [Example 32, N-((S)-2-amino-3-(1H-indol-3-yl)propyl)-3-(isoquinolin-6-yl)isoxazol-5-amine] | 50 to 1000 |
| N[C@H](CNc1onc(-c2ccc3cnccc3c2)c1Cc1ccccc1)Cc1c[nH]c2ccccc12 [Example 33, N-((S)-2-Amino-3-(1H-indol-3-yl)propyl)-4-benzyl-3-(isoquinolin-6-yl)isoxazol-5-amine] | 50 to 1000 |
| CC(C)Cc1c(-c2ccc3cnccc3c2)noc1NC[C@@H](N)Cc1c[nH]c2ccccc12 [Example 34, N-((S)-2-Amino-3-(1H-indol-3-yl)propyl)-4-isobutyl-3-(isoquinolin-6-yl)isoxazol-5-amine] | 1000 to 10000 |
| NCCc1c(-c2ccc3cnccc3c2)noc1NC[C@@H](N)Cc1c[nH]c2ccccc12 [Example 35, N-((S)-2-Amino-3-(1H-indol-3-yl)propyl)-4-(2-aminoethyl)-3-(isoquinolin-6-yl)isoxazol-5-amine] | 1000 to 10000 |
| NCCNc1onc(-c2ccc3cnccc3c2)c1Cc1ccccc1 [Example 36, N-(2-Aminoethyl)-4-benzyl-3-(isoquinolin-6-yl)isoxazol-5-amine] | 1000 to 10000 |
| N[C@H](CCn1cc(-c2ccc3[nH]ncc3c2)nn1)Cc1ccc(C(F)(F)F)cc1 [Example 37, (2S)-4-(4-(1H-Indazol-5-yl)-1H-1,2,3-triazol-1-yl)-1-(4-(trifluoromethyl)phenyl)butan-2-amine] | 50 to 1000 |
| Cc1n[nH]c2ccc(-c3cn(CC[C@@H](N)Cc4ccc(C(F)(F)F)cc4)nn3)cc12 [Example 38, (2S)-4-(4-(3-Methyl-1H-indazol-5-yl)-1H-1,2,3-triazol-1-yl)-1-(4-(trifluoromethyl)phenyl)butan-2-amine] | 50 to 1000 |
| N[C@H](CCn1cc(-c2ccc3[nH]ncc3c2)nn1)Cc1ccccc1 [Example 39, (2S)-4-(4-(1H-Indazol-5-yl)-1H-1,2,3-triazol-1-yl)-1-phenylbutan-2-amine] | 50 to 1000 |
| Cc1n[nH]c2ccc(-c3cn(CC[C@@H](N)Cc4ccccc4)nn3)cc12 [Example 40, (2S)-4-(4-(3-Methyl-1H-indazol-5-yl)-1H-1,2,3-triazol-1-yl)-1-phenylbutan-2-amine] | 1000 to 10000 |
| N[C@H](CNc1cnc(-c2ccc3cnccc3c2)s1)Cc1ccc(C(F)(F)F)cc1 [Example 41, N-((S)-2-Amino-3-(4-(trifluoromethyl)phenyl)propyl)-2-(isoquinolin-6-yl)thiazol-5-amine trifluoroacetate] | 50 to 1000 |
| N[C@H](CNc1cnn(-c2ccc3cnccc3c2)c1)Cc1ccc(C(F)(F)F)cc1 [Example 42, N-((S)-2-Amino-3-(4-(trifluoromethyl)phenyl)propyl)-1-(isoquinolin-6-yl)-1H-pyrazol-4-amine] | 50 to 1000 |
| N[C@H](CNc1nc(-c2ccc3cnccc3c2)ns1)Cc1ccc(C(F)(F)F)cc1 [Example 43, N-((S)-2-Amino-3-(4-(trifluoromethyl)phenyl)propyl)-3-(isoquinolin-6-yl)-1,2,4-thiadiazol-5-amine] | 50 to 1000 |
| N[C@H](CNc1nc(-c2ccc3c(c2)CC(=O)N3)ns1)Cc1ccc(C(F)(F)F)cc1 [Example 44, 5-(5-((S)-2-Amino-3-(4-(trifluoromethyl)phenyl)propylamino)-1,2,4-thiadiazol-3-yl)indolin-2-one] | 1000 to 10000 |
| N[C@H](CNc1nc(-c2ccc3[nH]ncc3c2)ns1)Cc1ccc(C(F)(F)F)cc1 [Example 45, N-((S)-2-Amino-3-(4-(trifluoromethyl)phenyl)propyl)-3-(1H-indazol-5-yl)-1,2,4-thiadiazol-5-amine] | 1000 to 10000 |
| N[C@H](CNc1cnn(-c2ccc3cnccc3c2)c1)Cc1ccc(Cl)cc1 [Example 46, N-((S)-2-Amino-3-(4-chlorophenyl)propyl)-1-(isoquinolin-6-yl)-1H-pyrazol-4-amine] | 50 to 1000 |
| N[C@H](CNc1nsc(-c2ccc3c(c2)CC(=O)N3)n1)Cc1ccc(C(F)(F)F)cc1 [Example 47, 5-(3-((S)-2-Amino-3-(4-(trifluoromethyl)phenyl)propylamino)-1,2,4-thiadiazol-5-yl)indolin-2-one] | 50 to 1000 |
| N[C@H](CCc1nc(-c2ccc3c(c2)CC(=O)N3)no1)Cc1ccc(C(F)(F)F)cc1 [Example 48, 5-(5-((R)-3-Amino-4-(4-(trifluoromethyl)phenyl)butyl)-1,2,4-oxadiazol-3-yl)indolin-2-one] | 50 to 1000 |
| N[C@@H](Cc1ccc(C(F)(F)F)cc1)c1nc(-c2ccc3c(c2)CC(=O)N3)no1 [Example 49, 5-(5-((S)-1-Amino-2-(4-(trifluoromethyl)phenyl)ethyl)-1,2,4-oxadiazol-3-yl)indolin-2-one] | 1000 to 10000 |
| Cn1c(=O)[nH]c2ccc(-c3cnn(CC[C@@H](N)Cc4ccc(Cl)cc4)c3)cc21 [Example 54, 6-(1-((S)-3-Amino-4-(4-chlorophenyl)butyl)-1H-pyrazol-4-yl)-1-methyl-1H-benzo[d]imidazol-2(3H)-one] | 50 to 1000 |

Other lines, results leading:

| IC50 [nM] | SMILES |
| --- | --- |
| < 50 | N[C@H](CCn1cc(-c2ccc3[nH]c(=O)oc3c2)cn1)Cc1ccc(Cl)cc1 [Example 50, 6-(1-((S)-3-Amino-4-(4-chlorophenyl)butyl)-1H-pyrazol-4-yl)benzo[d]oxazol-2(3H)-one] |
| < 50 | N[C@H](CCn1cc(-c2ccc3c(c2)CC(=O)N3)cn1)Cc1ccc(Cl)cc1 [Example 51, 5-(1-((S)-3-Amino-4-(4-chlorophenyl)butyl)-1H-pyrazol-4-yl)indolin-2-one] |
| < 50 | N[C@H](CCn1cc(-c2ccc3[nH]ncc3c2)cn1)Cc1ccc(Cl)cc1 [Example 52, (2S)-4-(4-(1H-Indazol-5-yl)-1H-pyrazol-1-yl)-1-(4-chlorophenyl)butan-2-amine] |
| < 50 | Cc1n[nH]c2ccc(-c3cnn(CC[C@@H](N)Cc4ccc(Cl)cc4)c3)cc12 [Example 53, (2S)-1-(4-Chlorophenyl)-4-(4-(3-methyl-1H-indazol-5-yl)-1H-pyrazol-1-yl)butan-2-amine] |
| < 50 | N[C@H](CCn1cc(-c2ccc3cnc(F)cc3c2)cn1)Cc1ccc(Cl)cc1 [Example 55, (2S)-1-(4-Chlorophenyl)-4-(4-(3-fluoroisoquinolin-6-yl)-1H-pyrazol-1-yl)butan-2-amine] |
| < 50 | N[C@H](CCn1cc(-c2ccc3cnccc3c2)cn1)Cc1ccc(Cl)cc1 [Example 56, (2S)-1-(4-Chlorophenyl)-4-(4-(isoquinolin-6-yl)-1H-pyrazol-1-yl)butan-2-amine] |
| < 50 | N[C@H](CCn1cc(-c2ccc3cnccc3c2)cn1)Cc1ccc(C(F)(F)F)cc1 [Example 57, (2S)-4-(4-(Isoquinolin-6-yl)-1H-pyrazol-1-yl)-1-(4-(trifluoromethyl)phenyl)butan-2-amine] |
| 50 to 1000 | Cc1ccc(C[C@H](N)CCn2cc(-c3ccc4cnccc4c3)cn2)cc1 [Example 58, (2S)-4-(4-(Isoquinolin-6-yl)-1H-pyrazol-1-yl)-1-p-tolylbutan-2-amine] |
| 50 to 1000 | N[C@H](CCn1cc(-c2ccc3cnccc3c2)cn1)Cc1cccc(Cl)c1 [Example 59, (2S)-1-(3-Chlorophenyl)-4-(4-(isoquinolin-6-yl)-1H-pyrazol-1-yl)butan-2-amine] |
| 50 to 1000 | N[C@H](CCn1cc(-c2ccc3cnccc3c2)cn1)Cc1ccc(Cl)c(Cl)c1 [Example 60, (2S)-1-(3,4-Dichlorophenyl)-4-(4-(isoquinolin-6-yl)-1H-pyrazol-1-yl)butan-2-amine] |
